Assays:
[1] = tested on: human red blood cells (hRBC); assay: Hemolysis; format: cell-based
How it was run: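 Percent lysis taken as OD540 of peptide-treated sample over OD540 of the water/0.1% Triton X-100 full-lysis control, with PBS giving 0%. Peptides at 100 μM exposed to PBS-washed human RBCs (20% v/v) for 1 hour at 37° C. before centrifugation and 20-fold dilution of supernatant.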

[2] = in vitro; format: in vitro ADME; conditions: plasma
Experimental: 405 μl of plasma/albumin solution were placed in a polypropylene (PP) tube and spiked with 45 μl of compound from a 100 μM solution B, derived from 135 μl of PBS and 15 μl of 1 mM peptide in PBS, pH 7.4. 150 μl aliquots were transferred into individual wells of the 10 kDa filter plate (Millipore MAPPB 1010 Biomax membrane). For “0 minutes controls”: 270 μl of PBS were placed in a PP tube and 30 μl of stock solution B was added and vortexed. 150 μl of control solution was placed into one well of the filter plate and serves as “filtered control”.
Further 150 μl of control solution were placed directly into a receiver well (reserved for filtrate) and serve as “not-filtered control”. The entire plate including evaporation lid was incubated for 60 min at 37° C. Plasma samples (rat plasma: Harlan Sera lab UK, human plasma: Blutspendezentrum Zürich) were centrifuged at least for 2 h at 4300 rpm (3500 g) and 15° C. in order to yield 100 μl filtrate. For “serum albumin”-samples (freshly prepared human albumin: Sigma A-4327, rat albumin: Sigma A-6272, all at 40 mg/ml concentration in PBS) approximately 1 hour of centrifugation is sufficient. The filtrates in the receiver PP plate were analysed by LC/MS as followes: Column: Jupiter C18 (Phenomenex), mobile phases: (A) 0.1% formic acid in water and (B) acetonitrile, gradient: 5%-100% (B) in 2 minutes, electrospray ionization, MRM detection (triple quadrupole). The peak areas were determined and triplicate values are averaged. The binding is expressed in percent of the (filtered and not-filtered time point 0 min) control 1 and 2 by: 100−(100*T60/T0). The average from these values is then calculated (see ref. 9 below).

## N=C(N)NCCC[C@@H]1NC(=O)[C@@H]2CSSC[C@H](NC(=O)[C@H](Cc3ccc4ccccc4c3)NC(=O)[C@H](CCCNC(=N)N)NC(=O)[C@H](CCCNC(=N)N)NC(=O)[C@H]3CCCN3C(=O)CNC1=O)C(=O)N[C@@H](Cc1ccc(O)cc1)C(=O)N[C@@H](CCCNC(N)=O)C(=O)N[C@@H](CCCCN)C(=O)N1CCC[C@@H]1C(=O)N1CCC[C@H]1C(=O)N[C@@H](Cc1ccc(O)cc1)C(=O)N[C@@H](CCCNC(=N)N)C(=O)N[C@@H](CCCNC(N)=O)C(=O)N2 [Ex. 51]
[1]
  Hemolysis at 100 μM: 0%
[2]; human
  half-life at 10 μM: 4.77 h
[2]; rat
  half-life at 10 μM: > 5 h

— patent publication US8895695B2, “Template-fixed beta-hairpin peptidomimetics with CXCR4 antagonizing activity” (priority 2003, dated 2014)
